The assay has as its target T1, FXR (Homo sapiens, UniProt Q96RI1).
T1 construct: 5 μL of 20 nM FXR-LBD Complete Coregulator buffer G; purchased ThermoFisher PV4833
T1 sequence (Q96RI1 262-486 limits assumed): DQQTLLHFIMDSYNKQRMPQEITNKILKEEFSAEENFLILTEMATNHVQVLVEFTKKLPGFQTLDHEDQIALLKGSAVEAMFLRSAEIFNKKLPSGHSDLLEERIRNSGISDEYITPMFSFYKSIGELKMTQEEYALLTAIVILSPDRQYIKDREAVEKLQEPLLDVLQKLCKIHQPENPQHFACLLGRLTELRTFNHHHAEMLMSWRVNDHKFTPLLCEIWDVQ
The assay is described as follows: FXR antagonist screening by TR-FRET (LanthaScreen TR-FRET FXR co-activation assay kit). Particulars: Table 1.2, FXR antagonistic activity; TR-FRET with CDCA; geometric means of at least two independent runs. Format: biochemical. The procedure:
FXR activity was evaluated by time-resolved fluorescence resonance energy transfer (TR-FRET) assay, using LanthaScreen™ TR-FRET FXR co-activation assay kit (ThermoFisher, Cat. PV4833). For agonist screening, 10 μL of Complete Coregulator buffer G containing the corresponding concentration of the compound to be tested, 5 μL of 20 nM FXR-LBD Complete Coregulator buffer G, and 5 μL of 2.0 μM Fluorescein-SRC2-2/20 nM Tb-anti-GST antibody Complete Coregulator buffer G were added to each well of a 384-well black plate (Coring) in sequence. […] Three duplicate wells were set up for each compound, with CDCA as the positive compound and DMSO as the solvent control. For antagonist screening, 5 μL of Complete Coregulator buffer G containing the corresponding concentration of the compound to be tested, 5 μL of 20 nM FXR-LBD Complete Coregulator buffer G, 5 μL of 200 μM CDCA FXR-LBD Complete Coregulator buffer G, and 5 μL of 2.0 μM Fluorescein-SRC2-2/20 nM Tb-anti-GST antibody Complete Coregulator buffer G were added to each well of a 384-well black plate (Coring) in sequence and incubated at room temperature for 10 h. Following operations were the same as those for agonist screening
Background: TR-FRET usually uses a lanthanide donor and a delayed reading to cut background.

As to `Cc1c(C(=O)O)oc2ccc(S(=O)(=O)N(CCc3ccccc3)c3ccccc3N3CCC(NC(=O)c4sccc4Br)CC3)cc12` [Example F27-S147, 5-(N-(2-(4-(3-bromothiophene-2-carboxamido)piperidin-1-yl)phenyl)-N-phenethylsulfamoyl)-3-methylbenzofuran-2-carboxylic acid], the half-inhibitory concentration (IC50) is 0.1 to 10 µM. Then `Cc1c(C(=O)O)oc2ccc(S(=O)(=O)N(CCc3ccccc3)c3ccccc3N3CCC4(CCN(C(=O)c5sccc5Br)C4)CC3)cc12` [Example F27-S148], with 0.1 to 10 µM.

The molecule `Cc1c(C(=O)O)oc2ccc(S(=O)(=O)N(CCc3ccccc3)c3ccccc3N3CC4(CCN(C(=O)c5sccc5Br)CC4)C3)cc12` [Example F27-S149, 5-(N-(2-(7-(3-bromothiophene-2-carbonyl)-2,7-diazaspiro[3.5]nonan-2-yl)phenyl)-N-phenethylsulfamoyl)-3-methylbenzofuran-2-carboxylic acid] showed an IC50 of 0.1 to 10 µM. In the case of `Cc1c(C(=O)O)oc2ccc(S(=O)(=O)N(CCc3ccccc3)c3ccccc3N3CCC4(CC3)CN(C(=O)c3sccc3Br)C4)cc12` [Example F27-S150], the IC50 lay within 0.1 to 10 µM. In turn, `Cc1c(C(=O)O)oc2ccc(S(=O)(=O)N(CCc3ccccc3)c3ccccc3N3CC4CC(C3)N4C(=O)c3sccc3Br)cc12` [Example F27-S151, 5-(N-(2-(6-(3-bromothiophene-2-carbonyl)-3,6-diazabicyclo[3.1.1]heptan-3-yl)phenyl)-N-phenethylsulfamoyl)-3-methylbenzofuran-2-carboxylic acid] returned a concentration for half-maximal inhibition (IC50) of 0.1 to 10 µM. In the case of `Cc1c(C(=O)O)oc2ccc(S(=O)(=O)N(CCc3ccccc3)c3ccccc3N3CCN(C(=O)c4sccc4Br)C[C@@H]3C)cc12` [Example F27-S152, (S)-5-(N-(2-(4-(3-bromothiophene-2-carbonyl)-2-methylpiperazin-1-yl)phenyl)-N-phenethylsulfamoyl)-3-methylbenzofuran-2-carboxylic acid], the half-inhibitory concentration (IC50) was 0.1 to 10 µM. With `Cc1c(C(=O)O)oc2ccc(S(=O)(=O)N(CCc3ccccc3)c3ccccc3N3CCN(C(=O)c4sccc4Br)C[C@H]3C)cc12` [Example F27-S153, (R)-5-(N-(2-(4-(3-bromothiophene-2-carbonyl)-2-methylpiperazin-1-yl)phenyl)-N-phenethylsulfamoyl)-3-methylbenzofuran-2-carboxylic acid], the half-maximal inhibitory concentration (IC50) was 0.1 to 10 µM. Then `Cc1c(C(=O)O)oc2ccc(S(=O)(=O)N(CCc3ccccc3)c3ccccc3N3CCCN(C(=O)c4sccc4Br)CC3)cc12` [Example F27-S154, 5-(N-(2-(4-(3-bromothiophene-2-formyl)-1,4-diazepin-1-yl)phenyl)-N-phenethylsulfamoyl)3-methylbenzofuran-2-carboxylic acid], with 0.1 to 10 µM; and `Cc1c(C(=O)O)oc2ccc(S(=O)(=O)N(CCc3ccccc3)c3ccccc3N3C4CCC3CN(C(=O)c3sccc3Br)C4)cc12` [Example F27-S155, 5-(N-(2-(3-(3-bromothiophene-2-formyl)-3,8-diazepine[3.2.1]cyclooctan-8-yl)phenyl)-N-phenethylsulfamoyl)3-methylbenzofuran-2-carboxylic acid], with 0.1 to 10 µM; and `Cc1c(C(=O)O)oc2ccc(S(=O)(=O)N(CCc3ccccc3)c3ccccc3N3CCN(C(=O)c4sccc4Br)C(C)C3)cc12` (centres unmarked) [Example F27-S156, 5-(N-(2-(4-(3-bromothiophene-2-formyl)-3-methylpiperazin-1-yl)phenyl)-N-phenethylsulfamoyl)3-methylbenzofuran-2-carboxylic acid], with 0.1 to 10 µM. Regarding `Cc1c(C(=O)O)oc2ccc(S(=O)(=O)N(CCc3ccccc3)c3ccccc3N3CC4CC3CN4C(=O)c3sccc3Br)cc12` (centres unmarked) [Example F27-S157, 5-(N-(2-(5-(3-bromothiophene-2-formyl)-2,5-diazabicyclo[2.2.1]hept-2-yl)phenyl)-N-phenethylsulfamoyl)3-methylbenzofuran-2-carboxylic acid], the half-maximal inhibitory concentration (IC50) fell in the range of 0.1 to 10 µM.

One may read the IC50 as the concentration needed to halve the response being measured. Read a low IC50 as higher potency.

Values taken from patent publication US20240239775A1, “FXR REGULATOR, PREPARATION METHOD THEREFOR, PHARMACEUTICAL COMPOSITION THEREOF AND USE THEREOF” (QINGDAO RUIJI MEDICAL TECHNOLOGY CO., LTD., priority 2021, published 2024).
